The target in one assay is PIK3CD (Human) (UniProt O00329). The assay is described as follows: Assessment of PI3KCD Kinase Activity.
In another assay the target is PIK3CA (human) (UniProt P42336). The assay is described as follows: Assessment of PI3KCA Kinase Activity.
In a further assay the target is PIK3CG (human) (UniProt P48736). The assay is described as follows: Assessment of PI3KCG Kinase Activity.
The target of a further assay is PIK3CB (Human) (UniProt P42338). The assay is described as follows: Assessment of PI3KCB Kinase Activity.

The record followed here is the Kinase Knowledgebase extract (Sharma et al. 2016).

The structures appear in SMILES notation. Bounds are passed on as bounds.

Usually IC50 stands for the concentration needed to halve the response being measured. A high value points to weaker potency.

PIK3CA (human), sequence (P42336 whole entry, looked up): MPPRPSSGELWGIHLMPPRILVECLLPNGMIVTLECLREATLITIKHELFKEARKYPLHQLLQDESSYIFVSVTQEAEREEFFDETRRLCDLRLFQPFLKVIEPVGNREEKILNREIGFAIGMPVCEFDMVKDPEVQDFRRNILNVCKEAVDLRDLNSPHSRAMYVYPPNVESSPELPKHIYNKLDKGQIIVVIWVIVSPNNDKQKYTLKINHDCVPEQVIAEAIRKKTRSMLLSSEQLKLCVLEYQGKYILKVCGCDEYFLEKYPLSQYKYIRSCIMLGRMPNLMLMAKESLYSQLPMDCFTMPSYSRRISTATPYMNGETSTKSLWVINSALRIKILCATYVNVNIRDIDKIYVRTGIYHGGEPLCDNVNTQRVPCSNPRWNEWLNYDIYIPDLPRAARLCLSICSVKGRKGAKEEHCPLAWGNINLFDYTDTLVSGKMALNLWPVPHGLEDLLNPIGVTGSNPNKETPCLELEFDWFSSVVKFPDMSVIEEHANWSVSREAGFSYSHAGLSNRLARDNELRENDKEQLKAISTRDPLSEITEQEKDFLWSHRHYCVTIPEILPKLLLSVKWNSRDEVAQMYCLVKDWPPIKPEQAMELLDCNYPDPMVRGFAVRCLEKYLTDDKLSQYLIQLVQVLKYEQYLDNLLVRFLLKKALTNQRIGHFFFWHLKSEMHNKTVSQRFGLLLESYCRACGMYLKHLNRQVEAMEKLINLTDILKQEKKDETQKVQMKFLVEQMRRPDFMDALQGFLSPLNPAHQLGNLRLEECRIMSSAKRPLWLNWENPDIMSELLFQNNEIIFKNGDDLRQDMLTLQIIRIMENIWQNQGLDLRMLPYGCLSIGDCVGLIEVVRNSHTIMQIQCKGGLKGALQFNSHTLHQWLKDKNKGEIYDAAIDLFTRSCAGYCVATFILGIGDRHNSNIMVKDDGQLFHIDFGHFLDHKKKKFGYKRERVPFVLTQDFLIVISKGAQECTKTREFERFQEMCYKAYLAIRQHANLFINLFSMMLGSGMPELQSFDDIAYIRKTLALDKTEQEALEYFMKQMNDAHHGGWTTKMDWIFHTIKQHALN
PIK3CD (Human), sequence (O00329 whole entry, looked up): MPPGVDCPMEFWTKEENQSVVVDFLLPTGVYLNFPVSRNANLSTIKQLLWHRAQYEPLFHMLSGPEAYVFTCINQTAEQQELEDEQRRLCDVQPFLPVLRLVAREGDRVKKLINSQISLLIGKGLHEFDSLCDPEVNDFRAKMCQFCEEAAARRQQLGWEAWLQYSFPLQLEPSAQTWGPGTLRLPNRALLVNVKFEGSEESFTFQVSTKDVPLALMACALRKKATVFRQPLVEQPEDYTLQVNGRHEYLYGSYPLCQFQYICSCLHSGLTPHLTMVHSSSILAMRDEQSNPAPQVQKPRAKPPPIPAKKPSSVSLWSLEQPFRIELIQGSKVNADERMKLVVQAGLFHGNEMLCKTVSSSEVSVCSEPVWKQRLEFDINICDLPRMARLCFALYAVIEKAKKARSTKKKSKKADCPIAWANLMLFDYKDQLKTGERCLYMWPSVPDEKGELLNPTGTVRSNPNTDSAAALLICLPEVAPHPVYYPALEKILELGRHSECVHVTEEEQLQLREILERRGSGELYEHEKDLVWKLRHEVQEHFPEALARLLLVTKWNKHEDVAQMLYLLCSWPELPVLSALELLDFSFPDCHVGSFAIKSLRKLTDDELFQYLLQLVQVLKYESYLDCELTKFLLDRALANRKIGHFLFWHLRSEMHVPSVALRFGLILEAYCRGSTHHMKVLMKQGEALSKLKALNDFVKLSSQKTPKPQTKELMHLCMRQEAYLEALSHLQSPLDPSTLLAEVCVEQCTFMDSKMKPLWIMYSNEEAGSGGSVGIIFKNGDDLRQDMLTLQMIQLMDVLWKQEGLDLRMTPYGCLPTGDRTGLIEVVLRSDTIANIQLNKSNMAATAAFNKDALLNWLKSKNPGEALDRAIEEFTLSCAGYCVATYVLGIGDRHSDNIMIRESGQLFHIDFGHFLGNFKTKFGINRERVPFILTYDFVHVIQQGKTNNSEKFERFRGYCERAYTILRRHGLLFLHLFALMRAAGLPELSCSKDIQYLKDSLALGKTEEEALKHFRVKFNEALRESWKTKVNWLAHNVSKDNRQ
PIK3CG (human), sequence (P48736 whole entry, looked up): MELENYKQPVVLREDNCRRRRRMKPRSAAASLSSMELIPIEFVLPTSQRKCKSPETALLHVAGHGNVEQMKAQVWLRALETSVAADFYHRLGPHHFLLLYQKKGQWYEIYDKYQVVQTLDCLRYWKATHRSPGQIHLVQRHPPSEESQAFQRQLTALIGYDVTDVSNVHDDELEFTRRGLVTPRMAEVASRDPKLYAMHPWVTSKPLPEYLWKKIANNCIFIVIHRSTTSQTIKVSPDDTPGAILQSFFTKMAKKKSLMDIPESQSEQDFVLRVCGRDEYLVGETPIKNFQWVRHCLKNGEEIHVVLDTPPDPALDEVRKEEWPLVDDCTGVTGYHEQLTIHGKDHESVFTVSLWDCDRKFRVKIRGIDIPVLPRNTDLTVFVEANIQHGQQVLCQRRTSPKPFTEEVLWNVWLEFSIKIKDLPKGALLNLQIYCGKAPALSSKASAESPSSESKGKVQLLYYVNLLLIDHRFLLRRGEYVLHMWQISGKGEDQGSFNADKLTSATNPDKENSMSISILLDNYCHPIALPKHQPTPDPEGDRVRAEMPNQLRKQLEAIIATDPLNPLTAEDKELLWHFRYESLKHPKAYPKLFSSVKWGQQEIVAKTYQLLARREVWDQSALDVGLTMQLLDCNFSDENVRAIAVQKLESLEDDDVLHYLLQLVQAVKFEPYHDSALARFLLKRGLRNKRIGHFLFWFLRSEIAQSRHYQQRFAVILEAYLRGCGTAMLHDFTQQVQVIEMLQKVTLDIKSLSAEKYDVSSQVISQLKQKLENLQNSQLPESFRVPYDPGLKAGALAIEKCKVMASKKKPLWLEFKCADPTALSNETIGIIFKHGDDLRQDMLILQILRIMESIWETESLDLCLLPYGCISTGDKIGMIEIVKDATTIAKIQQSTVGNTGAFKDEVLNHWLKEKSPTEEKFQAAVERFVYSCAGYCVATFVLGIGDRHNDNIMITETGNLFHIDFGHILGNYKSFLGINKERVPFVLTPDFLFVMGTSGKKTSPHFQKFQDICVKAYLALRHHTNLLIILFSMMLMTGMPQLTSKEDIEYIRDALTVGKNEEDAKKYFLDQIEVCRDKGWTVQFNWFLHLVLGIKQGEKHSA
PIK3CB (Human), sequence (P42338 whole entry, looked up): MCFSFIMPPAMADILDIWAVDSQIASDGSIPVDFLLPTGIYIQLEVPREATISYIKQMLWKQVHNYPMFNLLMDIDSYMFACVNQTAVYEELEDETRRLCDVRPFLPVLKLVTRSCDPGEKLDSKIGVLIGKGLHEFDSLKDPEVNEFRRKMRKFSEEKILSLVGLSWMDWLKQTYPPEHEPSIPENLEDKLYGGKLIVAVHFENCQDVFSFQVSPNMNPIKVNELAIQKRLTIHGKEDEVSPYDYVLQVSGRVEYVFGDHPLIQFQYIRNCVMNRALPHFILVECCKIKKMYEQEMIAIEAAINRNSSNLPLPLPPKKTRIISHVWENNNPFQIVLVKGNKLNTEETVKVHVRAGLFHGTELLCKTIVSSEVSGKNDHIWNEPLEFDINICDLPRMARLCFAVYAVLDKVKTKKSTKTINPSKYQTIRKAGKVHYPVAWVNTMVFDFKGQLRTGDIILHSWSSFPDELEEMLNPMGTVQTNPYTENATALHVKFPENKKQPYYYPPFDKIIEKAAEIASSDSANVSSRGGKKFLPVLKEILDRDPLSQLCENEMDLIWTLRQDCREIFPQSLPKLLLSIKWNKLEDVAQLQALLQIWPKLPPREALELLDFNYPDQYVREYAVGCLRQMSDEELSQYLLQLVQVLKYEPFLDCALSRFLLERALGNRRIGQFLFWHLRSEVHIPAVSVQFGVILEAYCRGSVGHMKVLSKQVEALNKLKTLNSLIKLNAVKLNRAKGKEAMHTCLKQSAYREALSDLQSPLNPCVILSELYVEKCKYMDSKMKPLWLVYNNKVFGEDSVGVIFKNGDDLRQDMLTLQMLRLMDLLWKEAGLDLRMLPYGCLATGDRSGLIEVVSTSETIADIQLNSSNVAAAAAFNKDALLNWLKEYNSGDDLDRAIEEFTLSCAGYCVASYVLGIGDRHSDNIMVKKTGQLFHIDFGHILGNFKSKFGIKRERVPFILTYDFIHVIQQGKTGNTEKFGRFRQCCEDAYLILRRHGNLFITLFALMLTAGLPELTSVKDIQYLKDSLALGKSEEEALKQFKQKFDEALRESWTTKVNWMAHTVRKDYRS

On to `CC(=O)Nc1nc2ccc(-c3nn(Cc4cc5cccc(C)c5c(=O)n4C4CCC4)c4ncnc(N)c34)cc2s1`, for which the IC50 on PIK3CD (Human) and on PIK3CA (human) was < 100 nM throughout.
Regarding `CC(=O)Nc1nc2ccc(-c3nn(Cc4cc5cccc(C)c5c(=O)n4C)c4ncnc(N)c34)cc2s1`, the half-maximal inhibitory concentration (IC50) against PIK3CD (Human) and on PIK3CA (human) was < 100 nM throughout.
Take `Cc1cccc2cc(Cn3nc(-c4ccc(F)c(O)c4)c4c(N)ncnc43)n(C(C)C)c(=O)c12`: the 50% inhibitory concentration (IC50) on PIK3CG (human) and against PIK3CD (Human) was < 100 nM in each case.
For the molecule `Cc1cccc2cc(Cn3nc(-c4ccc(Cl)c(O)c4)c4c(N)ncnc43)n(-c3ccccc3F)c(=O)c12`, the IC50 on PIK3CG (human) and at PIK3CD (Human) was < 100 nM in each case.
Regarding `Cc1ccccc1-n1c(Cn2nc(-c3cccc(O)c3)c3c(N)ncnc32)cc2cccc(F)c2c1=O`, the half-inhibitory concentration (IC50) on PIK3CG (human) and on PIK3CD (Human) was < 100 nM throughout.
`Cc1ccccc1-n1c(Cn2nc(-c3ccc(F)c(O)c3)c3c(N)ncnc32)nc2scc(C)c2c1=O`: the IC50 against PIK3CG (human) and against PIK3CD (Human) was < 100 nM in each case.
Take `Cc1cccc2cc(Cn3nc(C#C[C@@H](C)O)c4c(N)ncnc43)n(-c3ccccc3C(C)C)c(=O)c12`: the 50% inhibitory concentration (IC50) on PIK3CG (human) and against PIK3CD (Human) was < 100 nM each time.
For the molecule `CCc1ccccc1-n1c(Cn2nc(-c3cc(O)cc(F)c3)c3c(N)ncnc32)cc2cccc(C)c2c1=O`, the IC50 against PIK3CG (human) and against PIK3CD (Human) was < 100 nM each time.
Take `Cc1cccc2cc(Cn3nc(-c4cc(O)cc(F)c4)c4c(N)ncnc43)n(-c3ccccc3Cl)c(=O)c12`: the IC50 against PIK3CG (human) and against PIK3CD (Human) was < 100 nM in each case.
As to `COc1ccccc1-n1c(Cn2nc(-c3cc(O)cc(F)c3)c3c(N)ncnc32)nc2scc(C)c2c1=O`, the IC50 against PIK3CG (human) and at PIK3CD (Human) was < 100 nM each time.
As to `Cc1cccc2cc(Cn3nc(I)c4c(N)ncnc43)n(-c3ccccc3C(C)C)c(=O)c12`, the IC50 on PIK3CG (human) and on PIK3CD (Human) was < 100 nM each time.
With `Cc1cccc2cc(Cn3nc(-c4cc(O)cc(F)c4)c4c(N)ncnc43)n(-c3ccccc3)c(=O)c12`, the IC50 against PIK3CG (human) and against PIK3CD (Human) was < 100 nM throughout.
Take `Cc1ccccc1-n1c(Cn2nc(-c3cccc(O)c3)c3c(N)ncnc32)cc2cccc(C)c2c1=O`: the IC50 at PIK3CG (human) and on PIK3CD (Human) was < 100 nM each time.
As to `Cc1cccc2cc(Cn3nc(-c4cccc(O)c4)c4c(N)ncnc43)n(-c3ccccc3Cl)c(=O)c12`, the IC50 on PIK3CG (human) and against PIK3CD (Human) was < 100 nM throughout.
On to `Cc1cccc2cc(Cn3nc(-c4ccc(F)c(O)c4)c4c(N)ncnc43)n(C3CCCC3)c(=O)c12`, for which the IC50 on PIK3CG (human) and against PIK3CD (Human) was < 100 nM in each case.
On to `Cc1cccnc1-n1c(Cn2nc(-c3ccc(Cl)c(O)c3)c3c(N)ncnc32)cc2cccc(C)c2c1=O`, for which the half-maximal inhibitory concentration (IC50) against PIK3CG (human) and against PIK3CD (Human) was < 100 nM in each case.
With `CCc1ccccc1-n1c(Cn2nc(I)c3c(N)ncnc32)cc2cccc(C)c2c1=O`, the IC50 on PIK3CG (human) and against PIK3CD (Human) was < 100 nM each time.
For `Cc1cccc2cc(Cn3nc(-c4cccc(O)c4)c4c(N)ncnc43)n(C(C)C)c(=O)c12`, the 50% inhibitory concentration (IC50) on PIK3CG (human) and against PIK3CD (Human) was < 100 nM in each case.
On to `CCc1ccccc1-n1c(Cn2nc(-c3cccc(O)c3)c3c(N)ncnc32)nc2scc(C)c2c1=O`, for which the half-maximal inhibitory concentration (IC50) on PIK3CG (human) and against PIK3CD (Human) was < 100 nM throughout.
In the case of `CNC(=O)Nc1nc2ccc(-c3nn(Cc4cc5cccc(C)c5c(=O)n4-c4ccccc4C)c4ncnc(N)c34)cc2s1`, the half-inhibitory concentration (IC50) on PIK3CG (human), against PIK3CD (Human) and against PIK3CA (human) was < 100 nM in each case.
Turning to `Cc1csc2nc(Cn3nc(-c4cccc(O)c4)c4c(N)ncnc43)n(-c3ccccc3C(C)C)c(=O)c12`, the IC50 at PIK3CG (human) and against PIK3CD (Human) was < 100 nM each time.
With `Cc1cccc2cc(Cn3nc(-c4cc(O)cc(F)c4)c4c(N)ncnc43)n(C3CC3)c(=O)c12`, the half-maximal inhibitory concentration (IC50) at PIK3CB (Human), against PIK3CG (human) and against PIK3CD (Human) was < 100 nM in each case.
For `Cc1ccccc1-n1c(Cn2nc(I)c3c(N)ncnc32)cc2cccc(C)c2c1=O`, the IC50 against PIK3CG (human) and on PIK3CD (Human) was < 100 nM throughout.
In the case of `CC(=O)Nc1nc2ccc(-c3nn(Cc4cc5cccc(C)c5c(=O)n4-c4cccc(F)c4)c4ncnc(N)c34)cc2s1`, the IC50 on PIK3CG (human) and at PIK3CD (Human) was < 100 nM each time.
For `Cc1cccc2cc(Cn3nc(I)c4c(N)ncnc43)n(-c3ccccc3O)c(=O)c12`, the IC50 on PIK3CG (human) and against PIK3CD (Human) was < 100 nM throughout.
With `Cc1ccccc1-n1c(Cn2nc(-c3cc(O)cc(F)c3)c3c(N)ncnc32)cc2nccc(C)c2c1=O`, the IC50 at PIK3CG (human) and on PIK3CD (Human) was < 100 nM in each case.
For `Cc1ccccc1-n1c(Cn2nc(C=C3SC(=O)NC3=O)c3c(N)ncnc32)cc2cccc(C)c2c1=O`, the half-maximal inhibitory concentration (IC50) against PIK3CG (human) and on PIK3CD (Human) was < 100 nM in each case.
Regarding `Cc1ccccc1-n1c(Cn2nc(-c3cc(O)cc(F)c3)c3c(N)ncnc32)cc2ccccc2c1=O`, the concentration for half-maximal inhibition (IC50) on PIK3CG (human) and against PIK3CD (Human) was < 100 nM each time.
Consider `CC(=O)Nc1nc2ccc(-c3nn(Cc4cc5cccc(C)c5c(=O)n4C(C)C)c4ncnc(N)c34)cc2s1`, for which the 50% inhibitory concentration (IC50) at PIK3CD (Human) and on PIK3CA (human) was < 100 nM each time.
As to `Cc1ccccc1-n1c(Cn2nc(C)c3c(N)ncnc32)nc2scc(C)c2c1=O`, the IC50 at PIK3CG (human) and at PIK3CD (Human) was < 100 nM throughout.
Consider `Cc1ccccc1-n1c(Cn2nc(-c3ccc(O)c(Cl)c3)c3c(N)ncnc32)nc2scc(C)c2c1=O`, for which the IC50 against PIK3CG (human) and against PIK3CD (Human) was < 100 nM in each case.
Consider `Cc1cccc2cc(Cn3nc(-c4cc(O)cc(F)c4)c4c(N)ncnc43)n(C3CCCC3)c(=O)c12`, for which the IC50 on PIK3CG (human) and on PIK3CD (Human) was < 100 nM each time.
`Cc1cccc2cc(Cn3nc(-c4cccc(O)c4)c4c(N)ncnc43)n(-c3ccccc3)c(=O)c12`: the IC50 against PIK3CG (human) and on PIK3CD (Human) was < 100 nM throughout.
Consider `Cc1cccnc1-n1c(Cn2nc(-c3cc(O)cc(F)c3)c3c(N)ncnc32)cc2cccc(C)c2c1=O`, for which the IC50 on PIK3CG (human) and against PIK3CD (Human) was < 100 nM each time.
With `Cc1ccccc1-n1c(Cn2nc(-c3ccc(Cl)c(O)c3)c3c(N)ncnc32)cc2ccccc2c1=O`, the half-inhibitory concentration (IC50) against PIK3CG (human) and at PIK3CD (Human) was < 100 nM each time.
For the molecule `Cc1ccccc1-n1c(Cn2nc(-c3ccc(O)c(F)c3)c3c(N)ncnc32)cc2cccc(C)c2c1=O`, the half-inhibitory concentration (IC50) on PIK3CG (human) and against PIK3CD (Human) was < 100 nM each time.
For the molecule `Cc1csc2nc(Cn3nc(C#C[C@@H](C)O)c4c(N)ncnc43)n(-c3ccccc3F)c(=O)c12`, the IC50 against PIK3CG (human) and against PIK3CD (Human) was < 100 nM each time.
Consider `COc1ccccc1-n1c(Cn2nc(-c3cccc(O)c3)c3c(N)ncnc32)cc2cccc(C)c2c1=O`, for which the 50% inhibitory concentration (IC50) at PIK3CG (human) and on PIK3CD (Human) was < 100 nM each time.
`Cc1ccccc1-n1c(Cn2nc(-c3ccc(F)c(O)c3)c3c(N)ncnc32)cc2cccc(F)c2c1=O`: the concentration for half-maximal inhibition (IC50) against PIK3CG (human) and at PIK3CD (Human) was < 100 nM each time.
With `Cc1csc2nc(Cn3nc(-c4cccc(O)c4)c4c(N)ncnc43)n(-c3ccccc3C(F)(F)F)c(=O)c12`, the IC50 against PIK3CG (human) and on PIK3CD (Human) was < 100 nM each time.
Turning to `Cc1cccc2cc(Cn3nc(-c4cccc(O)c4)c4c(N)ncnc43)n(-c3ccccc3O)c(=O)c12`, the IC50 against PIK3CG (human) and against PIK3CD (Human) was < 100 nM in each case.
`Cc1ccccc1-n1c(C(C)Nc2ncnc3[nH]cnc23)cc2cccc(C)c2c1=O` (stereo not given): the 50% inhibitory concentration (IC50) against PIK3CG (human) and at PIK3CD (Human) was < 100 nM each time.
With `Cc1ccccc1-n1c(Cn2nc(Br)c3c(N)ncnc32)cc2cccc(C)c2c1=O`, the IC50 against PIK3CG (human) and on PIK3CD (Human) was < 100 nM each time.
With `CCc1ccccc1-n1c(Cn2nc(-c3cc(O)cc(F)c3)c3c(N)ncnc32)nc2scc(C)c2c1=O`, the half-maximal inhibitory concentration (IC50) at PIK3CG (human) and against PIK3CD (Human) was < 100 nM in each case.
For the molecule `Cc1ccccc1-n1c(Cn2nc(-c3ccc4cc[nH]c4c3)c3c(N)ncnc32)nc2scc(C)c2c1=O`, the IC50 on PIK3CG (human) and against PIK3CD (Human) was < 100 nM each time.
Consider `CCn1c(Cn2nc(-c3ccc4nc(NC(C)=O)sc4c3)c3c(N)ncnc32)cc2cccc(C)c2c1=O`, for which the IC50 at PIK3CG (human), at PIK3CD (Human) and against PIK3CA (human) was < 100 nM throughout.
Take `Cc1cccc2cc(Cn3nc(C=C4SC(=O)NC4=O)c4c(N)ncnc43)n(-c3ccccc3F)c(=O)c12`: the half-inhibitory concentration (IC50) against PIK3CG (human) and against PIK3CD (Human) was < 100 nM each time.
Regarding `COc1ccccc1-n1c(Cn2nc(-c3cc(O)cc(F)c3)c3c(N)ncnc32)cc2cccc(C)c2c1=O`, the IC50 against PIK3CG (human) and at PIK3CD (Human) was < 100 nM in each case.
For the molecule `Cc1ccccc1-n1c(Cn2nc(-c3cccc(O)c3)c3c(N)ncnc32)cc2nccc(C)c2c1=O`, the IC50 at PIK3CG (human) and against PIK3CD (Human) was < 100 nM throughout.
In the case of `Cc1cccnc1-n1c(Cn2nc(-c3ccc(F)c(O)c3)c3c(N)ncnc32)cc2cccc(C)c2c1=O`, the 50% inhibitory concentration (IC50) against PIK3CG (human) and at PIK3CD (Human) was < 100 nM each time.
`Cc1ccccc1-n1c(Cn2nc(-c3cccc(O)c3)c3c(N)ncnc32)nc2scc(C)c2c1=O`: the half-inhibitory concentration (IC50) at PIK3CG (human) and against PIK3CD (Human) was < 100 nM each time.
For `Cc1cccc2cc(Cn3nc(-c4cccc(O)c4)c4c(N)ncnc43)n(C3CC3)c(=O)c12`, the 50% inhibitory concentration (IC50) at PIK3CG (human) and against PIK3CD (Human) was < 100 nM in each case.
`Cc1ccccc1-n1c(Cn2nc(-c3ccc4nc(N)ncc4c3)c3c(N)ncnc32)cc2cccc(C)c2c1=O`: the IC50 against PIK3CG (human), against PIK3CD (Human) and against PIK3CA (human) was < 100 nM throughout.
Take `CC(=O)Nc1nc2ccc(-c3nn(Cc4cc5cccc(F)c5c(=O)n4C(C)C)c4ncnc(N)c34)cc2s1`: the IC50 at PIK3CD (Human) and at PIK3CA (human) was < 100 nM throughout.
With `Cc1ccccc1-n1c(Cn2nc(-c3ccc4nc(N)ccc4c3)c3c(N)ncnc32)cc2cccc(C)c2c1=O`, the IC50 against PIK3CG (human) and at PIK3CD (Human) was < 100 nM in each case.
In the case of `CCc1ccccc1-n1c(Cn2nc(Br)c3c(N)ncnc32)nc2scc(C)c2c1=O`, the concentration for half-maximal inhibition (IC50) on PIK3CG (human) and on PIK3CD (Human) was < 100 nM throughout.
On to `CC(=O)Nc1nc2ccc(-c3nn(Cc4cc5ccccc5c(=O)n4-c4ccccc4C)c4ncnc(N)c34)cc2s1`, for which the 50% inhibitory concentration (IC50) against PIK3CG (human) and against PIK3CD (Human) was < 100 nM each time.
As to `Cc1csc2nc(Cn3nc(Br)c4c(N)ncnc43)n(-c3ccccc3C(C)C)c(=O)c12`, the IC50 at PIK3CG (human) and on PIK3CD (Human) was < 100 nM throughout.
